Results on two compounds are retold here after patent US20260041089A1, “PLANT BIOSTIMULANT AND METHODS OF MAKING AND USING SAME” (Solugen, Inc., priority 2022, published 2026).

Values joined by “and” are separate entries in the source; they are usually repeats but may differ in a detail not shown here. Identical values can stand only once.

The test system of this assay is microgreens. In words: Radish microgreens growth under controlled pH 5, 1% solutions (Example 2). It is filed as in vivo. Particulars: for germination rate / root hair development: Day 2; for Plant dry weight: harvest Day 8, dried 3 days. The method, then:
The biostimulant effect of a PBC under controlled pH and composition conditions was investigated. Particularly, a second batch of testing was performed to verify that biostimulant effect observed in Example 1 was not an artifact of differing pH or composition. In this set, samples having a controlled yet differing compositions were compared. The first sample set comprised the sugar sucrose while the second sample comprised citric acid. Citric acid was reported to promote seed germination, all under the same pH. Therefore, solutions of 1% citric acid, sucrose, and a PBC were prepared and adjusted to a pH of 5. Two pots were filled with 150 g of each solution. About 200 seeds were placed on top of each soaked growing mats. This second batch was left indoors at room temperature for 8 days.
Microgreens were harvested on Day 8. They were then dried for 3 days, and the dry weights were recorded.

The mark [1] stands for this setting: 1% solution, pH 5, harvest Day 8.

Regarding `O=C(O)CC(O)(CC(=O)O)C(=O)O` [Citric Acid, citric acid], the root hair development result was “minimal root hair development”. Besides, under “1% solution, pH 5”, the germination rate is listed as 100%; the Plant dry weight was 1.99 g and 1.81 g. The “Length of Root” value under setting [1] is 0.82 ± 0.25 cm and 0.71 ± 0.22 cm. The “overall growth at harvest (Table 2 summary)” value (1 wt. %, Day 8) is “least overall growth in every parameter considered”. Moreover, the growth observation result (Day 4) was “stunted growth with no stem or root hair development”. The growth observation result (Day 7) was “no stem development and poor overall growth”.
Take `OC[C@H]1O[C@@](CO)(O[C@H]2O[C@H](CO)[C@@H](O)[C@H](O)[C@H]2O)[C@@H](O)[C@@H]1O` [Sucrose, sucrose]: the root hair development result is reported as “most root hair development”. Also, where the note is “1% solution, pH 5”, the germination rate came to 99%; the Plant dry weight is 3.0 g and 2.29 g. Further, under setting [1], the “Length of Root” value was 2.61 ± 0.43 cm and 2.49 ± 1.0 cm; the “Length of Stem” value is 3.86 ± 1.10 cm and 4.27 ± 1.03 cm. Moreover, the leaf development result (Day 3) is “most leaf development”. For the same compound, for the setting “Day 7”, the growth observation entry was “healthy leaf growth”.
